Patent US20220088016A1, “CANCER TREATMENT USING MULTI-TARGETED KINASE INHIBITOR IN COMBINATION OF PROTEIN KINASE BIOMARKERS” (ZHEJIANG CROWNMAB BIOTECH CO. LTD., priority 2019, published 2022)

Legend:
Test in all cases: Kinase profiling
Type in all cases: binding
Settings in all cases: read-out: % Ctrl @ 1000 nM
PAK6 = PAK6 (Homo sapiens, UniProt Q9NQU5)
RIOK1 = RIOK1 (Homo sapiens, UniProt Q9BRS2)
SRPK2 = SRPK2 (Homo sapiens, UniProt P78362)
VRK2 = VRK2 (Homo sapiens, UniProt Q86Y07)
CAMKK2 = CAMKK2 (Homo sapiens, UniProt Q96RR4)
TAK1 = TAK1 (Homo sapiens, UniProt O43318)
DRAK1 = DRAK1 (Homo sapiens, UniProt Q9UEE5)
DAPK3 = DAPK3 (Homo sapiens, UniProt O43293)
PRKCH = PRKCH (Homo sapiens, UniProt P24723)
DAPK2 = DAPK2 (Homo sapiens, UniProt Q9UIK4)
MKNK2 = target: T1, MKNK2 (Homo sapiens, UniProt Q9HBH9)
T1 construct: T7 phage fusion (stated for most kinases of the panel only); made in house; host or cells: T7 phage in E. coli (BL21-derived) or HEK-293 cells

PIK3CA (E545K) = PIK3CA (E545K) (Homo sapiens, UniProt P42336, E545K)
CSK = CSK (Homo sapiens, UniProt P41240)
MAP4K5 = MAP4K5 (Homo sapiens, UniProt Q9Y4K4)
WNK1 = WNK1 (Homo sapiens, UniProt Q9H4A3)
MLK3 = target: T2, MLK3 (Homo sapiens, UniProt Q16584)
T2 construct: T7 phage fusion (stated for most kinases of the panel only); made in house; host or cells: T7 phage in E. coli (BL21-derived) or HEK-293 cells

ZAP70 = ZAP70 (Homo sapiens, UniProt P43403)
[1] = target: JAK3 (JH1domain-catalytic) (Homo sapiens, UniProt P52333)
SLK = SLK (Homo sapiens, UniProt Q9H2G2)
AKT1 = AKT1 (Homo sapiens, UniProt P31749)
RIOK3 = RIOK3 (Homo sapiens, UniProt O14730)
CDK2 = CDK2 (Homo sapiens, UniProt P24941)
WNK2 = WNK2 (Homo sapiens, UniProt Q9Y3S1)
[2] = target: ABL1 (F317L)-nonphosphorylated (Homo sapiens, UniProt P00519, F317L)
EPHA8 = EPHA8 (Homo sapiens, UniProt P29322)
NEK10 = target: T3, NEK10 (Homo sapiens, UniProt Q6ZWH5)
T3 construct: T7 phage fusion (said for most assays); made in house

PRP4 = PRP4 (Homo sapiens, UniProt Q13523)
p38-gamma = p38-gamma (Homo sapiens, UniProt P53778)
GRK4 = GRK4 (Homo sapiens, UniProt P32298)
TNNI3K = TNNI3K (Homo sapiens, UniProt Q59H18)
CAMK2G = CAMK2G (Homo sapiens, UniProt Q13555)
AXL = AXL (Homo sapiens, UniProt P30530)
PRKX = PRKX (Homo sapiens, UniProt P51817)
TEC = TEC (Homo sapiens, UniProt P42680)
GRK3 = GRK3 (Homo sapiens, UniProt P35626)
TESK1 = TESK1 (Homo sapiens, UniProt Q15569)
PCTK3 = PCTK3 (Homo sapiens, UniProt Q07002)
MYO3B = target: T4, MYO3B (Homo sapiens, UniProt Q8WXR4)
T4 construct: T7 phage fusion (said for most assays); made in house

LZK = LZK (Homo sapiens, UniProt O43283)
CDK5 = CDK5 (Homo sapiens, UniProt Q00535)

AKT1, sequence (P31749 whole entry): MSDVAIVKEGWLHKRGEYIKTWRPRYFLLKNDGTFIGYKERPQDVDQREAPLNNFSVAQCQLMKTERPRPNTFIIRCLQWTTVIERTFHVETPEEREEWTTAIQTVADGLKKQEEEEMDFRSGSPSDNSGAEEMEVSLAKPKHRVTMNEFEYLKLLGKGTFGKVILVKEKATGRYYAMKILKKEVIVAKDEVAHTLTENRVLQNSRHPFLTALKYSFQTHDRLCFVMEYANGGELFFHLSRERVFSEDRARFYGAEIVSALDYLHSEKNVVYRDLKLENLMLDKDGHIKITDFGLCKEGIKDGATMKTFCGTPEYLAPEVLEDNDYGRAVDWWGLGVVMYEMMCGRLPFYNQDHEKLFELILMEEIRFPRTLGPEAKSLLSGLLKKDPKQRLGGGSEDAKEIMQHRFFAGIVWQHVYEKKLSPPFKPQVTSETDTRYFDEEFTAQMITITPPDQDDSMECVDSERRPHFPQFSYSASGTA
CAMKK2, sequence (Q96RR4 whole entry): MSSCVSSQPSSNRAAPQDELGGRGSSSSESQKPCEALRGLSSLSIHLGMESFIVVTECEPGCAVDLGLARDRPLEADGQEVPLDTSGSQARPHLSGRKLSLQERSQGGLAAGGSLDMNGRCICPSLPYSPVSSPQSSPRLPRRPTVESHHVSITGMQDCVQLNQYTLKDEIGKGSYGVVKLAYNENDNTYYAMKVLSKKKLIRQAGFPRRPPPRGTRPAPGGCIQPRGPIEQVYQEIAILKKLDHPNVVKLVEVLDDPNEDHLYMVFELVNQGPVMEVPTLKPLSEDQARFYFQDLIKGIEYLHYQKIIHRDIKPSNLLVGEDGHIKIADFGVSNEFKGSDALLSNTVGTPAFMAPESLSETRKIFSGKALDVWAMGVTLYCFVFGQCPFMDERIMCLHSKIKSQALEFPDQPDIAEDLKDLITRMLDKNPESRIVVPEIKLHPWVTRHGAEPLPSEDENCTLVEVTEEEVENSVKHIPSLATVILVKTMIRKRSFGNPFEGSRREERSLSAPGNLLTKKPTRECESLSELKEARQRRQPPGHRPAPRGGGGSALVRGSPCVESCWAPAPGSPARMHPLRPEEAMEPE
WNK1, sequence (Q9H4A3 whole entry): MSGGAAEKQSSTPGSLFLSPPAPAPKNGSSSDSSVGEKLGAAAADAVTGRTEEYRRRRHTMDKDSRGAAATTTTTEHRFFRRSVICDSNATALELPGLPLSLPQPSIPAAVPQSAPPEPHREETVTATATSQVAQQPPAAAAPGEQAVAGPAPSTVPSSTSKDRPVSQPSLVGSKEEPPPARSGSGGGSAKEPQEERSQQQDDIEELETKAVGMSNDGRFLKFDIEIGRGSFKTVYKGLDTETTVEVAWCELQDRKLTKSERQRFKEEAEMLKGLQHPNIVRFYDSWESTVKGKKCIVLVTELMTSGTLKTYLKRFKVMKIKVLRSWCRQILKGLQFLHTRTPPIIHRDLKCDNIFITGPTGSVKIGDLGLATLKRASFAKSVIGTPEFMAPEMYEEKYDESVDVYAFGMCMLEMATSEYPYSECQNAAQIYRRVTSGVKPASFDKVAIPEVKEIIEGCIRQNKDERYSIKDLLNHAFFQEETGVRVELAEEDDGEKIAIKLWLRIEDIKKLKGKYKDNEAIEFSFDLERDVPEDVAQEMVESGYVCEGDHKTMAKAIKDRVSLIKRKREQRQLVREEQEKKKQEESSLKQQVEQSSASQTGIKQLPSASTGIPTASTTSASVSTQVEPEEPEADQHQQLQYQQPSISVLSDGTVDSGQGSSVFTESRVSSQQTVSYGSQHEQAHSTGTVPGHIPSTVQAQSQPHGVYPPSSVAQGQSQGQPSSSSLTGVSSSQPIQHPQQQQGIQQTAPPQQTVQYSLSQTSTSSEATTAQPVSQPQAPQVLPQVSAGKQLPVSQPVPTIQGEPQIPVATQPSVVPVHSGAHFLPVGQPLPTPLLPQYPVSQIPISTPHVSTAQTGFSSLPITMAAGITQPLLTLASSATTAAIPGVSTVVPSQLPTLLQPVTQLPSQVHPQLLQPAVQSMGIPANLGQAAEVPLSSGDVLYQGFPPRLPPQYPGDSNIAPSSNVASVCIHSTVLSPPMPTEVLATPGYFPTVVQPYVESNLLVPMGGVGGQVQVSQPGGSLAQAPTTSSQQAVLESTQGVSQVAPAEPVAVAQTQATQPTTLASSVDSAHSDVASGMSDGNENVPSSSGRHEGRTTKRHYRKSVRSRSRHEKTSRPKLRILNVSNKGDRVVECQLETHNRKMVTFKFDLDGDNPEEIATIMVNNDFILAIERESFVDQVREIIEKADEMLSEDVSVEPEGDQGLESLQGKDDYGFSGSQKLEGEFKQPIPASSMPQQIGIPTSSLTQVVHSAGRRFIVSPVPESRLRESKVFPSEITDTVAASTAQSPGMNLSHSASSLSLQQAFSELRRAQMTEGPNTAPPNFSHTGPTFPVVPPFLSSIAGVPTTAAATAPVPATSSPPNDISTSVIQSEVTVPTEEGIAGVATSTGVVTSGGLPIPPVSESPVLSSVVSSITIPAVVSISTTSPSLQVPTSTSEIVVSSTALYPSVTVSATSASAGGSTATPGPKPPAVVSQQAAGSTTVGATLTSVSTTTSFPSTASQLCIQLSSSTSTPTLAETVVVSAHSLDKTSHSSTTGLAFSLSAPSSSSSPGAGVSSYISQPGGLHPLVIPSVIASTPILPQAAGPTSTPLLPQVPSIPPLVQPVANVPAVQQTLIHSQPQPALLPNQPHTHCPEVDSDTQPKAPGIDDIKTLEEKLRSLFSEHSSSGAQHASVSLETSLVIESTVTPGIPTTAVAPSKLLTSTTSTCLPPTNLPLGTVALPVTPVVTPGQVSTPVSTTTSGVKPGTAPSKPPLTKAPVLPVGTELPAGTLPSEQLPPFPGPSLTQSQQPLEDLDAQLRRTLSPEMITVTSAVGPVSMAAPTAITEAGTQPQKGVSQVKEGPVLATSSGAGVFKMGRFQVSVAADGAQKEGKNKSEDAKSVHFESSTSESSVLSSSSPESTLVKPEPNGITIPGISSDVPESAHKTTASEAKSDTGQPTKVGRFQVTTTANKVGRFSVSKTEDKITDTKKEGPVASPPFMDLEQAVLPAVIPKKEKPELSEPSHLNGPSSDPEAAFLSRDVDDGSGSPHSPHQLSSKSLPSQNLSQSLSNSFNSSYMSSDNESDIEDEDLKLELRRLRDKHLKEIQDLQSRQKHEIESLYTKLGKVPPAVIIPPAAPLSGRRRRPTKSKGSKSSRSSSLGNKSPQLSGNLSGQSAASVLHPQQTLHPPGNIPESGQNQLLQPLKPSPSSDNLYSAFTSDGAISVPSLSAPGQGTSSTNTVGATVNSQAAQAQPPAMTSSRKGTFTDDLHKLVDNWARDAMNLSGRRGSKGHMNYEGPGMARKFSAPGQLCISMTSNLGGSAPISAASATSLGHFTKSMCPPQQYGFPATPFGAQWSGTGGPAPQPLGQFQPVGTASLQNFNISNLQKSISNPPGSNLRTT
AXL, sequence (P30530 26-894): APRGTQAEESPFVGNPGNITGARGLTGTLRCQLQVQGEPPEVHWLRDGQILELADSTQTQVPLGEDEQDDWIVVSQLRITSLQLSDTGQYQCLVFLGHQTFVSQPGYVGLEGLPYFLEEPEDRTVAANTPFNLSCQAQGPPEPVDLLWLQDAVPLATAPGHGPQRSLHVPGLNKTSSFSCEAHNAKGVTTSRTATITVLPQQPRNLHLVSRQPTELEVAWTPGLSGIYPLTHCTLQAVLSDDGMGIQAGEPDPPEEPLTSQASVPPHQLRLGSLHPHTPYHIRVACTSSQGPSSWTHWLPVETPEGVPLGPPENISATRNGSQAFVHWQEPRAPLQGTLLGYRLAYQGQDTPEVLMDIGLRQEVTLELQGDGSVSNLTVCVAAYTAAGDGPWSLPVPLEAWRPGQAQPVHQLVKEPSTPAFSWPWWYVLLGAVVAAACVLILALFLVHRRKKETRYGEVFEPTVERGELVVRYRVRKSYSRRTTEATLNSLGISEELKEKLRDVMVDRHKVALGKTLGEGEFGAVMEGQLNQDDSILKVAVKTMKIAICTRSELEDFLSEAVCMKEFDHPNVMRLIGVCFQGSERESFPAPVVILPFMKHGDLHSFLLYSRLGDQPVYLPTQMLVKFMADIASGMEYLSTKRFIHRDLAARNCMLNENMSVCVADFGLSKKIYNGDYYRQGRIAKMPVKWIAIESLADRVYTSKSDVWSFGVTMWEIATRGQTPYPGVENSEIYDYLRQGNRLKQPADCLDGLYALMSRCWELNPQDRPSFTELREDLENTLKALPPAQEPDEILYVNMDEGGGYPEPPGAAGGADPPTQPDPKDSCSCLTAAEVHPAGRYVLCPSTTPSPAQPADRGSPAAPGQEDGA
TEC, sequence (P42680 whole entry): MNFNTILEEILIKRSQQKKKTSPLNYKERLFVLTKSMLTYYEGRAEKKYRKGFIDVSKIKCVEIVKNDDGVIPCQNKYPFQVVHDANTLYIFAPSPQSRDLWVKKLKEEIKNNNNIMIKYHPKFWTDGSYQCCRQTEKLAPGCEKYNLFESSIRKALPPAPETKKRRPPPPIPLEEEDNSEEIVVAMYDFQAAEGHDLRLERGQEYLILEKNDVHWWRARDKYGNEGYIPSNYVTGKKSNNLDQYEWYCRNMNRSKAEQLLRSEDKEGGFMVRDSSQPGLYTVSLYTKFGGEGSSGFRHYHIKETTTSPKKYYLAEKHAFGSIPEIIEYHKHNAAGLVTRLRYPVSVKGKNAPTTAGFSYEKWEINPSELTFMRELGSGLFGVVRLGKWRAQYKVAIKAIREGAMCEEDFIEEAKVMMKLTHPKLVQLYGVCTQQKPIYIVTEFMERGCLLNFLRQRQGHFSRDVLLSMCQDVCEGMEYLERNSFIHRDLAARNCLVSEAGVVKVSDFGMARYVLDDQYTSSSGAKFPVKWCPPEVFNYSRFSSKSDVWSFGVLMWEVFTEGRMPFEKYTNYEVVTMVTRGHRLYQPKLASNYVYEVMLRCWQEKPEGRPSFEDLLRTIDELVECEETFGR

Cc1cc(Oc2cc(NC(=O)C3CC3)ncn2)ccc1NC(=O)Nc1ccc(Cl)c(C(F)(F)F)c1 [CBT-102]
remaining activity at 1 µM (PAK6): 94%
remaining activity at 1 µM (RIOK1): 54%
remaining activity at 1 µM (SRPK2): 100%
remaining activity at 1 µM (VRK2): 100%
remaining activity at 1 µM (CAMKK2): 92%
remaining activity at 1 µM (TAK1): 12%
remaining activity at 1 µM (DRAK1): 100%
remaining activity at 1 µM (DAPK3): 96%
remaining activity at 1 µM (PRKCH): 100%
remaining activity at 1 µM (DAPK2): 95%
remaining activity at 1 µM (MKNK2): 83%
remaining activity at 1 µM (PIK3CA (E545K)): 94%
remaining activity at 1 µM (CSK): 29%
remaining activity at 1 µM (MAP4K5): 2.2%
remaining activity at 1 µM (WNK1): 87%
remaining activity at 1 µM (MLK3): 92%
remaining activity at 1 µM (ZAP70): 90%
remaining activity at 1 µM [1]: 82%
remaining activity at 1 µM (SLK): 1.4%
remaining activity at 1 µM (AKT1): 100%
remaining activity at 1 µM (RIOK3): 65%
remaining activity at 1 µM (CDK2): 69%
remaining activity at 1 µM (WNK2): 100%
remaining activity at 1 µM [2]: 16%
remaining activity at 1 µM (EPHA8): 9.1%
remaining activity at 1 µM (NEK10): 77%
remaining activity at 1 µM (PRP4): 95%
remaining activity at 1 µM (p38-gamma): 28%
remaining activity at 1 µM (GRK4): 100%
remaining activity at 1 µM (TNNI3K): 31%
remaining activity at 1 µM (CAMK2G): 100%
remaining activity at 1 µM (AXL): 56%
remaining activity at 1 µM (PRKX): 93%
remaining activity at 1 µM (TEC): 92%
remaining activity at 1 µM (GRK3): 97%
remaining activity at 1 µM (TESK1): 100%
remaining activity at 1 µM (PCTK3): 84%
remaining activity at 1 µM (MYO3B): 90%
remaining activity at 1 µM (LZK): 97%
remaining activity at 1 µM (CDK5): 92%
